From ChEMBL document CHEMBL1129421, “Comparative molecular field analysis of haptens docked to the multispecific antibody IgE(Lb4)” (J Med Chem, 1996)

test system: Monoclonal antibody (mAb); assay: Ability to bind to monoclonal antibody IgE (Lb4), expressed as association constant (LogKA)

Point of comparison: `NC(=O)CC(Nc1ccc([N+](=O)[O-])cc1[N+](=O)[O-])C(=O)O` (centres undefined), Log KA 4.92. Against it:
- O=C(O)CCC(Nc1ccc([N+](=O)[O-])cc1[N+](=O)[O-])C(=O)O (centres undefined) — lower, 4.63
- CC(Nc1ccc([N+](=O)[O-])cc1[N+](=O)[O-])C(=O)O (centres undefined) — higher, 5.8
- O=C(O)c1cccc(C(=O)O)c1C(=O)O — within 0.2 log units, 4.77
- O=[N+]([O-])c1ccc(O)c([N+](=O)[O-])c1 — within 0.2 log units, 4.89
- C[N+](C)(C)CC(O)C[N+](C)(C)C — lower, 4.66
- CC(C)CC(Nc1ccc([N+](=O)[O-])cc1[N+](=O)[O-])C(=O)O (centres undefined) — higher, 5.39
- CC(C)C(Nc1ccc([N+](=O)[O-])cc1[N+](=O)[O-])C(=O)O (centres undefined) — higher, 5.93
- Nc1ccc2ccccc2c1 — higher, 5.71
- O=C(O)C(Cc1c[nH]c2ccccc12)Nc1ccc([N+](=O)[O-])cc1[N+](=O)[O-] (centres undefined) — higher, 5.93
- O=C(CCC(=O)Oc1ccccc1C(=O)O)Oc1ccccc1C(=O)O — lower, 4.57
- O[C@@](CCN1CCCCC1)(c1ccccc1)C1CCCC1 — within 0.2 log units, 4.84
- O=C(O)C(CO)Nc1ccc([N+](=O)[O-])cc1[N+](=O)[O-] (centres undefined) — higher, 5.5
- O[C@](CCN1CCCCC1)(c1ccccc1)C1CCCC1 — within 0.2 log units, 4.84
- CC(=O)Nc1nnc(S(N)(=O)=O)s1 — within 0.2 log units, 5
- O=C(O)CC(Nc1ccc([N+](=O)[O-])cc1[N+](=O)[O-])C(=O)O (centres undefined) — higher, 5.5
- Cc1ccc(O)c(C(=O)O)c1 — higher, 5.38
- CC(O)C(Nc1ccc([N+](=O)[O-])cc1[N+](=O)[O-])C(=O)O (centres undefined) — higher, 5.49
- O=C(O)CNc1ccc([N+](=O)[O-])cc1[N+](=O)[O-] — within 0.2 log units, 4.9
- O=C(O)C1CCCN1c1ccc([N+](=O)[O-])cc1[N+](=O)[O-] (centres undefined) — higher, 5.19
- N#C/C(=C\c1ccccc1)C(=O)O — within 0.2 log units, 5.04
- CSCCC(Nc1ccc([N+](=O)[O-])cc1[N+](=O)[O-])C(=O)O (centres undefined) — higher, 5.72
- NC(=O)CCC(Nc1ccc([N+](=O)[O-])cc1[N+](=O)[O-])C(=O)O (centres undefined) — within 0.2 log units, 5.08
- O=C(O)c1ccc2ccccc2c1O — higher, 6.71
- N=C(N)NCCC[C@H](Nc1ccc([N+](=O)[O-])cc1[N+](=O)[O-])C(=O)O — within 0.2 log units, 5.04
- N[C@@H](CCCCNc1ccc([N+](=O)[O-])cc1[N+](=O)[O-])C(=O)O — lower, 4.38
- Nc1ccc(/N=N/c2ccccc2)c(N)n1 — higher, 6.5
- O=C(O)C(Cc1ccc(O)cc1)Nc1ccc([N+](=O)[O-])cc1[N+](=O)[O-] (centres undefined) — within 0.2 log units, 4.85
- O=C(O)C(Cc1ccccc1)Nc1ccc([N+](=O)[O-])cc1[N+](=O)[O-] (centres undefined) — higher, 5.78
